Earlier results in US20080108542A1, “Perfume Compositions” (priority 2005, published 2008).

Conditions: 25° C.; data from literature or estimation software

SMILES	SVP (saturated vapour pressure) class
CC(C)CC1CCCC(C)(O)C1 (centres unmarked) [1-METHYL-3-(2-METHYLPROPYL)CYCLOHEXANOL]	& (SVPs in the range of 25 to 125 micron Hg)
CC1=CC(C)C(C=O)CC1 (centres unmarked) [2,4-DIMETHYL-3-CYCLOHEXENE-1-CARBOXALDEHYDE]	&& (SVPs greater than 125 micron Hg)
CCCCC1OC(C)CC(C)(C)O1 (centres unmarked) [2-BUTYL-4,4,6-TRIMETHYL-1,3-DIOXAN]	&& (SVPs greater than 125 micron Hg)
CCCCCCC1CCCC1=O (centres unmarked) [2-HEXYL-CYCLOPENTANONE]	& (SVPs in the range of 25 to 125 micron Hg)
C=CCOC(=O)COCC(C)CC (centres unmarked) [2-METHYLBUTYLOXYACETIC ACID, 2-PROPENYL ESTER]	& (SVPs in the range of 25 to 125 micron Hg)
CCCCCCCCCC(C)C=O (centres unmarked) [2-METHYLUNDECANAL]	& (SVPs in the range of 25 to 125 micron Hg)
CCCCCCCC1CCCO1 (centres unmarked) [2-N-HEPTYLTETRAHYDROFURAN]	&& (SVPs greater than 125 micron Hg)
COC1CC2CC1C1CC=CC21 (centres unmarked) [8-METHOXY-TRICYCLO[5.2.1.0{2,6}]DEC-3-ENE]	&& (SVPs greater than 125 micron Hg)
CC/C=C/CC/C=C/C#N [(2E,6E)-NONA-2,6-DIENENITRILE]	& (SVPs in the range of 25 to 125 micron Hg)
CC1=CCC(C(C)(C)O)CC1 (stereo not drawn) [ALPHA-TERPINEOL]	& (SVPs in the range of 25 to 125 micron Hg)
CCOC(=O)C1=C(C)C=CCC1(C)C [ETHYL 2,6,6-TRIMETHYLCYCLOHEXA-1,3-DIENE-1-CARBOXYLATE]	& (SVPs in the range of 25 to 125 micron Hg)
CC(=O)OC1CCC(C(C)(C)C)CC1 (centres unmarked) [PARA TERT.BUTYL CYCLOHEXYL ACETATE]	& (SVPs in the range of 25 to 125 micron Hg)
CCC(C)(O)CCCC(C)C (centres unmarked) [TETRAHYDROLINALOL]	&& (SVPs greater than 125 micron Hg)
CCCCC/C=C/CCC=O [TRANS-4-DECENAL]	&& (SVPs greater than 125 micron Hg)
